The test has as its system patients with metastatic NSCLC progressing on or after platinum therapy. Description: LUNAR phase 3 randomized study: overall survival, progression-free survival, radiological response.

Method: LUNAR was a prospective, phase 3, randomized, open-label, parallel study (EF-24; NCT02973789) of TTFields (150 kHz) therapy concomitant with standard-of-care systemic therapy (docetaxel or investigator's choice immune checkpoint inhibitor) in patients with metastatic NSCLC progressing on or after platinum therapy. LUNAR was conducted at 124 sites across 17 countries in North America, Europe, and Asia (Table Si) between February 2017 and November 2021.
Eligible participants were adults (≥22 years of age) with a histological or cytological diagnosis of metastatic NSCLC that had shown radiological progression while on or after platinum-based systemic therapy (prior ICI permitted). Other than maintenance therapy, the most recent systemic therapy administered for advanced NSCLC was platinum-therapy. […]
Eligible patients were randomly assigned 1:1 (within 28 days of providing informed consent) to receive TTFields therapy to the thorax concomitant with investigator's choice of standard therapy (an immune checkpoint inhibitor [nivolumab, pembrolizumab, or atezolizumab] or docetaxel). Randomization was determined centrally using variable blocked randomization and an IxRS system, and stratified by tumor histology, treatment (docetaxel or an immune checkpoint inhibitor), and region (North America, Western Europe/Israel, and Eastern Europe). […]

Turning to `CC(=O)O[C@@]12CO[C@@H]1C[C@H](O)[C@@]1(C)C(=O)[C@H](O)C3=C(C)[C@@H](OC(=O)[C@H](O)[C@@H](NC(=O)OC(C)(C)C)c4ccccc4)C[C@@](O)([C@@H](OC(=O)c4ccccc4)[C@H]21)C3(C)C` [Docetaxel, docetaxel], the one-year survival rate (docetaxel subgroup) turned out to be 39.4%. This compound gave a median overall survival (subgroup receiving docetaxel) of 8.9 months.

Values taken from patent US20240399142A1, “Methods Of Using Alternating Electric Fields And Checkpoint Inhibitors” (NOVOCURE GMBH, priority 2023, published 2024).
